Source: patent US20050124658A1, “Decahydronaphtho[2,3-c]furan derivatives” (Segami Chemical Research Center, priority 2001, published 2005)

melting point [°C]	SMILES
75 to 77	COC1OCC2C(O)C3CCCCC3CC12 (stereo not shown) [Example 6, Dodecahydro-1-methoxy-naphtho[2,3-c]furan-4-ol]
149 to 150	O=C1OCC2C1CC1CCCCC1C2O (stereo not shown) [Example 5, Decahydro-4-hydoxy-naphtho[2,3-c]furan-1(3H)-one]
78 to 79	COC1OCC2C(=O)C3CCCCC3CC12 (stereo not shown) [Example 7, Decahydro-1-methoxy-naphtho[2,3-c]furan-4(1H)-one]
90 to 91	O=C1OCC2C3OC(C4CCCCC43)C12 (stereo not shown)
107 to 108	COC1OCC2C1CC1CCCCC1C2COC(=O)c1ccc(Br)cc1 (stereo not shown) [Example 10, Dodecahydro-4-(4-bromophenyl)carboxymethyl-1-methoxynaphtho[2,3-c]furan]
105 to 106	O=C1OCC2C3OC(C4=C3CCCC4)C12 (stereo not shown)
53 to 55	C=C1C2CCCCC2CC2C(OC)OCC12 (stereo not shown) [Example 8, Dodecahydro-1-methoxy-4-methylenenaphtho[2,3-c]furan]
